Measurements: paper PMC6383948, “Evaluation of a class of isatinoids identified from a high-throughput screen of human kinase inhibitors as anti-Sleeping Sickness agents” (PLoS Neglected Tropical Diseases, 2019)
“And” between values parts separate entries of the source, which are not always exact repeats. Equal entries are not always repeated. Where two headings read alike, the source gives them in different places.

Tests used:
[1] = Mouse pharmacokinetics, blood and brain levels after IP dose; format: in vivo; settings: for Brain level: LLOQ = 25 ng/g; for AUC0-t / Cmax / Tmax: blood
Method: NEU-4391 was administered intraperitoneally (IP) to two groups of female NMRI mice (Group 1 n = 3; Group 2 n = 6). The compound was prepared in 1% (v/v) DMSO:99% (v/v) 20% (w/v) sulfobutyl ether-beta-cyclodextrin (SBE-β-CD) (Captisol) in water and the dosing volume was 10 mL/kg for a total dose of 10 mg/kg. Food and tap water were available ad libitum. Following IP dosing, Group 1 blood samples were collected from the tail vein into capillary tubes containing K2EDTA at the following time-points: 0.0833, 0.25, 0.5, 1, 2, 4, 6, 8 and 24 h.
In order to obtain simultaneous blood and brain samples, Group 2 mice were placed under terminal anaesthetic (isoflurane) and blood samples (0.3 mL) collected from the retro-orbital sinus into K2EDTA tubes at 0.5 h (n = 3) and 4 h (n = 3) after compound administration. Immediately following blood sample collection, death was confirmed by cervical dislocation and the brain removed. Aliquots of each blood sample were diluted in an equal volume of water. Mouse brain samples were weighed, water was added at a 1/2 (w/v) ratio (brain/water), and then homogenized. Both blood and brain samples were stored -80°C until analysis.
Diluted blood and brain homogenates were processed under standard liquid-liquid extraction procedures using acetonitrile containing an internal standard (Nifedipine) and analyzed by LC-MS/MS. Non-compartmental analysis was performed using the Phoenix pharmacokinetic software version 1.4 (Certara) and Cmax, tmax, AUClast, AUC, and t1/2 were estimated.

[2] = test system: S. mansoni adults and somules; assay: S. mansoni phenotypic assay, adults and somules (severity score); format: cell-based, Schistosoma mansoni (NMRI isolate); settings: for activity against S. mansoni adults and/or somules: 10 μM; for Adult severity score (10 μM): adults; for Adult severity score (10 μM) / Somule severity score (10 μM): score 0-4; for Somule severity score (10 μM): somules
Method: Maintenance of the Schistosoma mansoni life cycle, preparation of somules (post-infective larvae) and adult worms (≥42-days-old), and co-incubation of these stages with test compounds were as described. An NMRI isolate of S. mansoni was used for all whole-organism screens.
Somules (40 units/well/96w round-bottomed plate) or adults (five paris/well/24w plate) were cultured in the presence of compounds at 10 µM and phenotypic changes observed as a function of time using an Zeiss Axiovert A1 inverted microscope (Table S4). A constrained nomenclature was used to describe the effects of compounds on parasites (changes in shape, motility and density). To generate a partially quantitative output for comparing drug effects, each descriptor was awarded a score of 1 and these were summed to a maximum score of 4 [7-10]: evidence of degeneracy or death was awarded the maximum score of 4. For adults specifically, damage to the tegument (outer surface) was also awarded a score of 4 based on the indication that damage to the patrasite’s surface is lethal in vivo [11]. Assays were performed twice and representative data are shown.

[3] = Shake-flask octanol-water Log D7.4; format: physicochemical; settings: pH 7.4, octanol-water shake-flask
Method: Shake-flask octanol-water distribution coefficient at pH 7.4 (Log D7.4). The aqueous solution used is 10 mM sodium phosphate pH 7.4 buffer. The method has been validated for Log D7.4 ranging from -2 to 5.0.

[4] = IP 10 mg/kg single dose, individual mice 001F-003F, 10 mg/kg

CNS(=O)(=O)c1ccc(N/N=C2\C(=O)Nc3cccc(C=C(C)C)c32)cc1 [NEU-4391, (Z)-N-Methyl-4-(2-(4-(2-methylprop-1-en-1-yl)-2-oxoindolin-3-ylidene)hydrazinyl)benzenesulfonamide]
Brain level ([1]; 0.5 h after IP 10 mg/kg, individual mice N1-N3): <LLOQ
Blood level ([1]; 0.5 h after IP 10 mg/kg, individual mice N1-N3, LLOQ = 25 ng/mL, 10 mg/kg): <LLOQ and 43.3 ng/mL
Brain level ([1]; 4.0 h after IP 10 mg/kg, individual mice N1-N3): <LLOQ
Blood level ([1]; 4.0 h after IP 10 mg/kg, individual mice N1-N3, LLOQ = 25 ng/mL): <LLOQ
Peripheral blood concentrations after 1 h ([1]; IP 10 mg/kg, Fig 6A): below the lower limit of quantitation
concentration in the brain ([1]; IP 10 mg/kg, all time points): below the limit of detection
AUC0-t [1, 4]: 34.5 ng·h/mL and 39.2 ng·h/mL
Cmax [1, 4]: 45.0 ng/mL and 56.5 ng/mL
Tmax [1, 4]: 30 min
concentration at 0.5 h ([1]; female, NMRI, mouse, whole blood, ip, 10 mg/kg, 0.5 h after IP 10 mg/kg, individual mice N1-N3, LLOQ = 25 ng/mL, read-out: Blood level): 50.7 ng/mL
concentration at 0.5 h ([1]; female, NMRI, mouse, whole blood, ip, 10 mg/kg, 0.5 h after IP 10 mg/kg, read-out: Blood level (mean)): 47 ng/mL
AUC0-t ([1]; female, NMRI, mouse, whole blood, ip, 10 mg/kg, IP 10 mg/kg single dose, individual mice 001F-003F, read-out: AUC0-t): 39.3 ng·h/mL
Cmax ([1]; female, NMRI, mouse, whole blood, ip, 10 mg/kg, IP 10 mg/kg single dose, individual mice 001F-003F, read-out: Cmax): 48.9 ng/mL
Tmax ([1]; female, NMRI, mouse, whole blood, ip, 10 mg/kg, IP 10 mg/kg single dose, individual mice 001F-003F, read-out: tmax): 15 min
AUC0-t ([1]; female, NMRI, mouse, whole blood, ip, 10 mg/kg, IP 10 mg/kg, mean of n = 3, read-out: AUC0-t (mean)): 37.7 ng·h/mL
Cmax ([1]; female, NMRI, mouse, whole blood, ip, 10 mg/kg, IP 10 mg/kg, mean of n = 3, read-out: Cmax (mean)): 50.1 ng/mL
Tmax ([1]; female, NMRI, mouse, whole blood, ip, 10 mg/kg, IP 10 mg/kg, n = 3, read-out: tmax (mean row, range)): 15 to 30 min
Cmax ([1]; female, NMRI, mouse, whole blood, ip, 10 mg/kg, IP 10 mg/kg, read-out: Cmax): 130 nM

CN(C)S(=O)(=O)c1ccc(N/N=C2\C(=O)Nc3ccccc32)cc1 [NEU-2118, (Z)-N,N-Dimethyl-4-(2-(2-oxoindolin-3-ylidene)hydrazinyl)benzenesulfonamide]
activity against S. mansoni adults and/or somules [2]: moderate and variable activity
Adult severity score (10 μM) ([2]; 3h): 3
Adult severity score (10 μM) ([2]; 6h): 3
Adult severity score (10 μM) ([2]; 24h): 3
Adult severity score (10 μM) ([2]; 48h): 3
Somule severity score (10 μM) ([2]; 24h): 0
Somule severity score (10 μM) ([2]; 48h): 0
logD [3]: 3.4

CNS(=O)(=O)c1ccc(N/N=C2\C(=O)Nc3ccccc32)cc1 [NEU-2124, (Z)-N-Methyl-4-(2-(2-oxoindolin-3-ylidene)hydrazinyl)benzenesulfonamide]
activity against S. mansoni adults and/or somules [2]: moderate and variable activity
Adult severity score (10 μM) ([2]; 3h): 2
Adult severity score (10 μM) ([2]; 6h): 2
Adult severity score (10 μM) ([2]; 24h): 2
Adult severity score (10 μM) ([2]; 48h): 2
Somule severity score (10 μM) ([2]; 24h): 1
Somule severity score (10 μM) ([2]; 48h): 0
logD [3]: 2.8
